Broadly, the Ki is the equilibrium dissociation constant of an inhibitor or competing ligand from its target.

The test concerns the target T1, Aminopeptidase N (Sus scrofa, UniProt P15145).
T1 sequence (P15145 whole entry): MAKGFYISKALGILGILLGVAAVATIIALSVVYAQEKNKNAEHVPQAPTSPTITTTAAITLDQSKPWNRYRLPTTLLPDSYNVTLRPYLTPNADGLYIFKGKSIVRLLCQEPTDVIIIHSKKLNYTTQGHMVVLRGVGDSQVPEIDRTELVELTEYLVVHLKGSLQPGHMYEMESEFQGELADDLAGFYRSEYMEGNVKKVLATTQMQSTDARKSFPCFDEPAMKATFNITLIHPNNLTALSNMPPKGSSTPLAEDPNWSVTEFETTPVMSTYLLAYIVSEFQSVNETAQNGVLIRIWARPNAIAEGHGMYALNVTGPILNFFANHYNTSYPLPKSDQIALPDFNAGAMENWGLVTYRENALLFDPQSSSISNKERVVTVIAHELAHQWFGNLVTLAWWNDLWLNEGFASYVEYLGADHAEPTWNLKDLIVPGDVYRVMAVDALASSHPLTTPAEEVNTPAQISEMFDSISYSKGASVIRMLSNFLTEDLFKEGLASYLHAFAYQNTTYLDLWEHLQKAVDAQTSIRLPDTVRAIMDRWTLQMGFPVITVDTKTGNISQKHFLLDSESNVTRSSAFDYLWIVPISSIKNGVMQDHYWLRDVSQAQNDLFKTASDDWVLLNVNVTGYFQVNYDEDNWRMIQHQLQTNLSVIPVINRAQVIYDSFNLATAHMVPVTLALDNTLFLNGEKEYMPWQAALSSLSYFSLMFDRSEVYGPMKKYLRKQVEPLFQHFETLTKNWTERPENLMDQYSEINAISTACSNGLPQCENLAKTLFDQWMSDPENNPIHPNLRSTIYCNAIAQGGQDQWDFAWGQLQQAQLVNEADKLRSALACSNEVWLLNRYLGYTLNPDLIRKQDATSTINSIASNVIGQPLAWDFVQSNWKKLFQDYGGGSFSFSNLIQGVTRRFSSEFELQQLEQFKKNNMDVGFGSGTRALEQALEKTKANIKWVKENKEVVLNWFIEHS
The test can be described thus: Inhibition of pig kidney Aminopeptidase N.

Each structure is given as a SMILES string.

In turn, `NC(Cc1ccccc1)P(=O)(O)CC(Cc1ccccc1)C(=O)O` (stereo unspecified) showed a Ki of 190 nM. `CSCCC(N)[PH](=O)O` (stereo unspecified) gave a Ki of 400 nM.

`C[C@H](N)CS` came in with a Ki of 28 nM. As for `NC(Cc1ccccc1)[PH](=O)O` (stereo unspecified), the figure is 960 nM.

Regarding `NC(c1ccccc1)[PH](=O)O` (stereo unspecified), affinity was put at a Ki of 4800 nM. As for `CC(C)CC(N)P(=O)(O)CC(Cc1ccccc1)C(=O)O` (stereo unspecified), the figure is 370 nM.

On to `N[C@H](CS)c1ccccc1`, for which affinity was put at a Ki of 25 nM.

`N[C@H](CS)CCc1ccccc1` showed a Ki of 27 nM. As for `CC(N)[PH](=O)O` (stereo unspecified), the Ki was 8400 nM. As for `CC(C)CC(N)[PH](=O)O` (stereo unspecified), the figure is 1200 nM; as for `CC(C)C[C@H](N)CS`, 22 nM.

For the origin of these results see ChEMBL document CHEMBL1131728 (Bioorg Med Chem Lett, 1999).
